Like-named read-outs stand apart in the source and are kept apart here. Each block holds one molecule with its values, some of them ahead of it.
Columns and labels:
[1] = in vitro; assay type: in vitro ADME, human; conditions: human, pH 7.4
Source text: Assay 3: Metabolic Stability of Test Compounds (HLM15′)
Sub-cellular tissue preparations are made according to Gorrod et al. (Xenobiotica, 5, pp. 453-462 (1975)) by centrifugal separation after mechanical homogenization of tissue. Human liver tissue is rinsed in ice-cold 0.1 M Tris-HCl (pH 7.4) buffer to wash excess blood. Tissue is then blotted dry, weighed and chopped coarsely using surgical scissors. The tissue pieces are homogenized in 3 volumes of ice-cold 0.1 M phosphate buffer (pH 7.4) using either a Potter-S (Braun, Italy) equipped with a Teflon pestle or a Sorvall Omni-Mix homogenizer, for 7×10 sec. In both cases, the vessel is kept in/on ice during the homogenization process. Tissue homogenates are centrifuged at 9000×g for 20 min at 4° C. using a Sorvall centrifuge or Beckman Ultracentrifuge. The resulting supernatant can be stored at −80° C. and is designated ‘S9’. The S9 fraction is centrifuged at 100,000×g for 60 min at 4° C. using a Beckman ultracentrifuge. The resulting supernatant is carefully aspirated, aliquoted and designated ‘cytosol’. The pellet is re-suspended in 0.1 M phosphate buffer (pH 7.4) in a final volume of 1 ml per 0.5 g original tissue weight and designated ‘microsomes’. All sub-cellular fractions are aliquoted, immediately frozen in liquid nitrogen and stored at −80° C. until use.
Heat-inactivated (10 min at 95° C.) ‘S9’ or microsomes were used for blank experiments. Reaction mixtures were incubated at 37° C. for 5 min, after which the reaction was started by the addition of 0.8 mM β-NADP. The reaction was incubated for 0 or 15 min. Next, the reaction was stopped by addition of 2 volumes of DMSO (or acetonitrile). Samples were centrifuged (10 min, 900×g) and analyzed by LC-MS.

[2] = molecular target: T1, CYP3A4 (Homo sapiens, UniProt P08684); assay: CYP450 inhibition, fluorescent substrate assay, CYP3A4; assay type: biochemical; conditions: 10 μM test compound; for inhibition at 10 min, 10 μM: E. coli expressed CYP3A4, pH 7.4, probe DBF (1 μM), substrate DBF 1 μM, read-out: 3A4-DBF % inh.
T1 construct: host or cells: E. coli
Protocol: (§1) Assay 4: CYP450 Inhibition […] This fluorescent molecule was measured using a fluorescent plate reader (Victor2 (Wallac) or Fluoroskan (Labsystems)). Compounds inhibiting the enzymatic reaction will result in a decrease of fluorescent signal. CYP P450 enzymes were prepared in house or commercially bought and stored at −80° C. [table] The assay was performed in black 96 well Costar plates. Test compounds were added to a CYP P450 enzyme solution in the presence of an NADPH generating system. After 5 min of preincubation at 37° C., the freshly prepared, phosphate buffered (pH 7.4) substrate solution was added. Known CYP P450 inhibitors were used as positive controls, negative controls were run without CYP P450 enzyme. For final reaction mixture concentrations, see Table 6. […] Then, the reaction was stopped by the addition of 200 μl acetonitrile, and the fluorescent signal was detected. [table] […] Inhibition of TMC114 Metabolisation

[3] = molecular target: T2, CYP2D6 (Homo sapiens, UniProt P10635); assay: CYP450 inhibition, fluorescent substrate assay, CYP2D6; assay type: biochemical; conditions: E. coli expressed CYP2D6, pH 7.4, probe AMMC (3 μM), 10 μM test compound, substrate AMMC 3 μM, read-out: 2D6-AMMC % inh.
T2 construct: host or cells: E. coli
Protocol: as §1

[4] = molecular target: T3, CYP2C19 (Homo sapiens, UniProt P33261); assay: CYP450 inhibition, fluorescent substrate assay, CYP2C19; assay type: biochemical; conditions: E. coli expressed CYP2C19, pH 7.4, probe CEC (25 μM), 10 μM test compound, substrate CEC 25 μM, read-out: 2C19-CEC % inh.
T3 construct: host or cells: E. coli
Protocol: as §1

[5] = molecular target: CYP2C9 (Homo sapiens, UniProt P11712); assay: CYP450 inhibition, fluorescent substrate assay, CYP2C9; assay type: biochemical; conditions: pH 7.4
Protocol: as §1

[6] = tested on: wild-type HIV-1 IIIB strain; assay: Antiviral activity in MT4 LTR-EGFP cellular assay; assay type: cell-based; conditions: Human immunodeficiency virus 1, 72 h; wild-type HIV-1 IIIB, MT4 LTR-EGFP cells, three days after infection; pEC50 = -log10(EC50); read-out: Antiviral Activity IIIB pEC50 (converted)
Protocol: (§2) Assay 1 &2: Antiviral Activity/Toxicity
The compounds of the present invention were tested for antiviral activity in a cellular assay, which was performed according to the following procedure.
The human T-cell line MT4 is engineered with Green Fluorescent Protein (GFP) and an HIV-specific promoter, HIV-1 long terminal repeat (LTR). This cell line is designated MT4 LTR-EGFP, and can be used for the in vitro evaluation of anti-HIV activity of investigational compounds. In HIV-1 infected cells, the Tat protein is produced which upregulates the LTR promotor and finally leads to stimulation of the GFP reporter production, allowing measuring ongoing HIV-infection fluorometrically.
(§3) The ratio of CC50 to EC50 is defined as the selectivity index (SI) and is an indication of the selectivity of the anti-HIV activity of the inhibitor. The ultimate monitoring of HIV-1 infection and cytotoxicity is done using a scanning microscope. Image analysis allows very sensitive detection of viral infection. Measurements are done before cell necrosis, which usually takes place about five days after infection, in particular measurements are performed three days after infection.
A pEC50 value corresponds to −log10(EC50). A pCC50 value corresponds to −log10(CC50).

[7] = Cytotoxicity in mock-infected MT4 CMV-EGFP cells; assay type: cell-based; conditions: human, pCC50 = -log10(CC50), read-out: Toxicity MT4 pCC50 (converted)
Source text: as §2
Analogously, MT4 cells are engineered with GFP and the constitutional cytomegalovirus (CMV) promotor. This cell line is designated MT4 CMV-EGFP, and can be used for the in vitro evaluation of cytotoxicity of investigational compounds. In this cell line, GFP levels are comparably to those of infected MT4 LTR-EGFP cells. Cytotoxic investigational compounds reduce GFP levels of mock-infected MT4 CMV-EGFP cells.
as §3, with “Effective concentration values such as 50% effective concentration (EC50) can be determined and are usually expressed in μM. An EC50 value is defined as the concentration of test compound that reduces the fluorescence of HIV-infected cells by 50%. The 50% cytotoxic concentration (CC50 in μM) is defined as the concentration of test compound that reduces fluorescence of the mock-infected cells by 50%. The ratio” for “The ratio”
Table 2 lists pEC50 values against the wild-type HIV-1 IIIB strain as well as pCC50 values for a selected number of compounds of the invention. A pEC50 value corresponds to −log10(EC50). A pCC50 value corresponds to −log10(CC50).

[8] = molecular target: T4, CYP1A2 (Homo sapiens, UniProt P05177); assay: CYP450 inhibition, fluorescent substrate assay, CYP1A2; assay type: biochemical; conditions: E. coli expressed CYP1A2, pH 7.4, probe CEC (5 μM), 10 μM test compound, substrate CEC 5 μM, read-out: 1A2-CEC % inh.
T4 construct: host or cells: E. coli
T4 sequence (P05177 1-516): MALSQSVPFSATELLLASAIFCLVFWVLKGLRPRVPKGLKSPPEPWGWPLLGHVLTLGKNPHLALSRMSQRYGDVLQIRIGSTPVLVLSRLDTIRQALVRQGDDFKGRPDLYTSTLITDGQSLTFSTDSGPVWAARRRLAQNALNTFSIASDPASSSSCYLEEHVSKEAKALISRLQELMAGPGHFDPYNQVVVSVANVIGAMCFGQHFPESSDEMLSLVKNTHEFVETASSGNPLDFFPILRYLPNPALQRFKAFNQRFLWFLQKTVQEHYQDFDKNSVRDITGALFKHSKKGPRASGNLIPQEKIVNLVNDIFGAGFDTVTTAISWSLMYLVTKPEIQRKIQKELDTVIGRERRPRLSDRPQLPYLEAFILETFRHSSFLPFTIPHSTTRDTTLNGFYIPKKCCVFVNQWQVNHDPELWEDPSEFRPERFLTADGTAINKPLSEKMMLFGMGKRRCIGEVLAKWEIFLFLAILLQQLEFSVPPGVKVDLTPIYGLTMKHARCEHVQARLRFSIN
Protocol: as §1

[9] = E. coli expressed CYP3A4, pH 7.4, probe BFC (150 μM), substrate BFC 150 μM, read-out: 3A4-BFC % inh.
[10] = E. coli expressed CYP3A4, pH 7.4, probe BQ (60 μM), substrate BQ 60 μM, read-out: 3A4-BQ % inh.

CYP2C9, sequence (P11712 whole entry): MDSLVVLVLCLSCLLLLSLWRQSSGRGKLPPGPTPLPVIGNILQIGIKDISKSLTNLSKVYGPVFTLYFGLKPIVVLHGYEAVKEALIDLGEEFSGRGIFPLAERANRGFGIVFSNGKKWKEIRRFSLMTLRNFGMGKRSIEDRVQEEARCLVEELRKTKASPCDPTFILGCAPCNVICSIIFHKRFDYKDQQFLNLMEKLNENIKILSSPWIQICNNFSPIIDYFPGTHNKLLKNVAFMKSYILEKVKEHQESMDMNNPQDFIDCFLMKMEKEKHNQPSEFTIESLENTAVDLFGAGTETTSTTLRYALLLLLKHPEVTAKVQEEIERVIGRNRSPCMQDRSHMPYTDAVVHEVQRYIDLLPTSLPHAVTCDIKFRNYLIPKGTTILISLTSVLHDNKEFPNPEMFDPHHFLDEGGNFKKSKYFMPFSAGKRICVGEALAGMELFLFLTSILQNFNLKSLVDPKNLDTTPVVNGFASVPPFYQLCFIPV
T3 sequence (P33261 whole entry): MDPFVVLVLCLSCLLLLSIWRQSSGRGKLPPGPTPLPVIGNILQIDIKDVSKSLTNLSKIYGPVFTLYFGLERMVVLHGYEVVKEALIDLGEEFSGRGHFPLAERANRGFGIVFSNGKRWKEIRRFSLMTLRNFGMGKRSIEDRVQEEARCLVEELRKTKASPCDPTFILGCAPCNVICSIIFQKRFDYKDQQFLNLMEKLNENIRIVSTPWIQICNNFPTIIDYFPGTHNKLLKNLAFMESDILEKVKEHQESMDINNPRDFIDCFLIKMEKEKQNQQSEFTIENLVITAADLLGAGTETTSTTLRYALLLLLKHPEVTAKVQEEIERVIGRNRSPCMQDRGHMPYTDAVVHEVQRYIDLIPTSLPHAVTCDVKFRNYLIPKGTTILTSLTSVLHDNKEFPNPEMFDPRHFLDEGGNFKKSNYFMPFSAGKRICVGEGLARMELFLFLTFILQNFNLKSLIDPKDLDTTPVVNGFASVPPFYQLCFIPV
T2 sequence (P10635 whole entry): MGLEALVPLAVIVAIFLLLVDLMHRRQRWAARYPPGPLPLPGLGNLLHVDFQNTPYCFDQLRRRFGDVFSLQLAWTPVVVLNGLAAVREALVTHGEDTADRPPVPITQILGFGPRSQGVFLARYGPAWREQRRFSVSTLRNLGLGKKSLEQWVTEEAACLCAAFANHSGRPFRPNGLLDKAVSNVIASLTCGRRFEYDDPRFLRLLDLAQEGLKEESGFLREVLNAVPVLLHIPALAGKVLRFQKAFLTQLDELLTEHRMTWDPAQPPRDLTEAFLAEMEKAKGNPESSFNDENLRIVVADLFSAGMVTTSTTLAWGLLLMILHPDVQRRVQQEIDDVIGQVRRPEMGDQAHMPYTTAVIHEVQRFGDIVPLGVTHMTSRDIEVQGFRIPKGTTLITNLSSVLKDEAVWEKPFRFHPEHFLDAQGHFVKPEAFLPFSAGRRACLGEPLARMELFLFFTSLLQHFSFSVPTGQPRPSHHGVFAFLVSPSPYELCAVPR
T1 sequence (P08684 whole entry): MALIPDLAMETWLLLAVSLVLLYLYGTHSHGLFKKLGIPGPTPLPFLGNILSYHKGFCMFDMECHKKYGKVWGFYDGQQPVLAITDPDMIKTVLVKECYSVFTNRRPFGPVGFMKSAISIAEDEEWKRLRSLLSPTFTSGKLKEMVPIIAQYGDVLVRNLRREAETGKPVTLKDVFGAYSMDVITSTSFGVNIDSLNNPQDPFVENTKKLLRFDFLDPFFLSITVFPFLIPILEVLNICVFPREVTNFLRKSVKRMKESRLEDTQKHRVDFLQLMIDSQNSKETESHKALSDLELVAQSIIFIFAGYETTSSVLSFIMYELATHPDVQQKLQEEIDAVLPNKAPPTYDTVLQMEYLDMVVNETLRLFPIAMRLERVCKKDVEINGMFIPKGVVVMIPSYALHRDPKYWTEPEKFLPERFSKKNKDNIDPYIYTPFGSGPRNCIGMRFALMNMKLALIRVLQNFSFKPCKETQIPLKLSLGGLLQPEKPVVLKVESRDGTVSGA

Structure (SMILES): COc1ccc(C(=O)N(CC(C)C)C[C@@H](O)[C@H](Cc2ccccc2)NC(=O)OCc2cncs2)cc1 [Compound C5]
- recovery at 15 min, 5 μM [1]: 83%
- inhibition at 30 min, 10 μM [2, 9]: 92%
- inhibition at 30 min, 10 μM [2, 10]: 82%
- inhibition at 10 min, 10 μM [2]: 92%
- inhibition at 45 min, 10 μM [3]: 41%
- inhibition at 30 min, 10 μM [4]: 86%
- inhibition at 30 min, 10 μM [5]: 94%
- EC50 [6]: 85.1 µM
- CC50 at 3 days [7]: 87.1 µM
- inhibition at 15 min, 10 μM [8]: 14%

Structure (SMILES): CC(C)CN(C[C@@H](O)[C@H](Cc1ccccc1)NC(=O)OCc1cncs1)C(=O)c1ccc(F)cc1 [Compound C6]
- recovery at 15 min, 5 μM [1]: 81%
- inhibition at 30 min, 10 μM [2, 9]: 82%
- inhibition at 30 min, 10 μM [2, 10]: 83%
- inhibition at 10 min, 10 μM [2]: 92%
- inhibition at 45 min, 10 μM [3]: 65%
- inhibition at 30 min, 10 μM [4]: 94%
- inhibition at 30 min, 10 μM [5]: 96%
- EC50 [6]: 79.4 µM
- CC50 at 3 days [7]: > 100 µM
- inhibition at 15 min, 10 μM [8]: 41%

Structure (SMILES): COc1cccc(C(=O)N(CC(C)C)C[C@@H](O)[C@H](Cc2ccccc2)NC(=O)OCc2cncs2)c1 [Compound C7]
- recovery at 15 min, 5 μM [1]: 56%
- inhibition at 30 min, 10 μM [2, 9]: 92%
- inhibition at 30 min, 10 μM [2, 10]: 80%
- inhibition at 10 min, 10 μM [2]: 94%
- inhibition at 45 min, 10 μM [3]: 45%
- inhibition at 30 min, 10 μM [4]: 89%
- inhibition at 30 min, 10 μM [5]: 97%
- EC50 [6]: 83.2 µM
- CC50 at 3 days [7]: 70.8 µM
- inhibition at 15 min, 10 μM [8]: 13%

Structure (SMILES): CC(C)CN(C[C@@H](O)[C@H](Cc1ccccc1)NC(=O)OCc1cncs1)C(=O)c1cccc(F)c1 [Compound C19]
- recovery at 15 min, 5 μM [1]: 69%
- inhibition at 45 min, 10 μM [3]: 53%
- inhibition at 30 min, 10 μM [4]: 77%
- inhibition at 30 min, 10 μM [5]: 93%
- CC50 at 3 days [7]: > 100 µM
- inhibition at 15 min, 10 μM [8]: 43%

- recovery at 15 min, 5 μM [1]: 92%
- inhibition at 30 min, 10 μM [2, 9]: 95%
- inhibition at 30 min, 10 μM [2, 10]: 77%
- inhibition at 10 min, 10 μM [2]: 84%
- inhibition at 45 min, 10 μM [3]: 30%
- inhibition at 30 min, 10 μM [4]: 35%
- inhibition at 30 min, 10 μM [5]: 82%
- inhibition at 15 min, 10 μM [8]: 0%
Structure (SMILES): CC(C)(O)CN(C[C@@H](O)[C@H](Cc1ccccc1)NC(=O)OCc1cncs1)C(=O)c1ccncc1 [Compound C26]
- CC50 at 3 days [7]: > 100 µM

From patent US8664391B2, “Amide compounds as boosters of antivirals” (Janssen R&D Ireland Ltd, priority 2008, dated 2014)
